Data: patent publication US20200369630A1, “HERBICIDALLY ACTIVE 3-PHENYL-5-TRIFLUOROMETHYLISOXAZOLINE-5-CARBOXAMIDES OF CYCLOPENTYLCARBOXYLIC ACIDS AND ESTERS” (Bayer Aktiengesellschaft, priority 2017, published 2020)

Key:
Type in all cases: in vivo
[1] = test system: ECHCG: Echinochloa crus-galli; experiment: Post-emergence herbicidal action; settings: Table C2, post-emergence, dosage 320 (0.32 kg of active substance per hectare), rated visually after about 3 weeks
Outline: (§1)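 Scores reflect visual injury about three weeks post-spray, where 0% equals untreated control growth and 100% equals dead plants. Treatment was a single foliar application at the one-leaf stage in sandy loam under greenhouse conditions.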

[2] = test system: AMARE: Amaranthus retroflexus; experiment: Post-emergence herbicidal action; settings: Table C2, post-emergence, dosage 320 (0.32 kg of active substance per hectare), rated visually after about 3 weeks
Outline: as §1

STEME: Stellaria media [3] = experiment: Post-emergence herbicidal action
Outline: as §1

AVEFA: Avena fatua [4] = experiment: Post-emergence herbicidal action; settings: Table C2, post-emergence, dosage 320 (0.32 kg of active substance per hectare), rated visually after about 3 weeks
Outline: as §1

LOLRI: Lolium rigidum [5] = experiment: Post-emergence herbicidal action; settings: Table C2, post-emergence, dosage 320 (0.32 kg of active substance per hectare), rated visually after about 3 weeks
Outline: as §1

VERPE: Veronica persica [6] = experiment: Post-emergence herbicidal action; settings: Table C2, post-emergence, dosage 320 (0.32 kg of active substance per hectare), rated visually after about 3 weeks
Outline: as §1

[7] = test system: POLCO: Polygonum convolvulus; experiment: Post-emergence herbicidal action; settings: Table C2, post-emergence, dosage 320 (0.32 kg of active substance per hectare), rated visually after about 3 weeks
Outline: as §1

HORMU: Hordeum murinum [8] = experiment: Post-emergence herbicidal action; settings: Table C2, post-emergence, dosage 320 (0.32 kg of active substance per hectare), rated visually after about 3 weeks
Outline: as §1

[9] = test system: ABUTH: Abutilon theophrasti; experiment: Post-emergence herbicidal action; settings: Second Table C3, superiority with respect to WO 2012/130798, post-emergence, 80 g/ha
Outline: as §1

[10] = test system: ALOMY: Alopecurus myosuroides; experiment: Post-emergence herbicidal action; settings: Table C2, post-emergence, dosage 320 (0.32 kg of active substance per hectare), rated visually after about 3 weeks
Outline: as §1

[11] = test system: ECHCG: Echinochloa crus-galli; experiment: Pre-emergence herbicidal action; settings: Table C1, pre-emergence, 80 g/ha, scored visually after about 3 weeks
Description: (§2) Seeds of monocotyledonous and dicotyledonous weed plants and crop plants are placed in plastic or wood fiber pots and covered with soil. The compounds of the invention, formulated in the form of wettable powders (WP) or as emulsion concentrates (EC), are then applied onto the surface of the covering soil as aqueous suspension or emulsion with addition of 0.5% additive at a water application rate of […] (converted). After the treatment, the pots are placed in a greenhouse and kept under good growth conditions for the trial plants. After about 3 weeks, the effect of the preparations is scored visually in comparison with untreated controls as percentages. For example, 100% activity=the plants have died, 0% activity=like control plants. [table]

[12] = test system: AMARE: Amaranthus retroflexus; experiment: Pre-emergence herbicidal action
Description: as §2

SETVI: Setaria viridis = experiment: Pre-emergence herbicidal action
Description: as §2

VIOTR: Viola tricolor = experiment: Pre-emergence herbicidal action
Description: as §2

STEME: Stellaria media [13] = experiment: Pre-emergence herbicidal action
Description: as §2

AVEFA: Avena fatua [14] = experiment: Pre-emergence herbicidal action
Description: as §2

LOLRI: Lolium rigidum [15] = experiment: Pre-emergence herbicidal action; settings: Table C1, pre-emergence, 80 g/ha, scored visually after about 3 weeks
Description: as §2

PHBPU: Ipomoea purpurea = experiment: Pre-emergence herbicidal action; settings: Table C1, pre-emergence, 80 g/ha, scored visually after about 3 weeks
Description: as §2

VERPE: Veronica persica [16] = experiment: Pre-emergence herbicidal action
Description: as §2

[17] = test system: POLCO: Polygonum convolvulus; experiment: Pre-emergence herbicidal action; settings: Table C1, pre-emergence, 80 g/ha, scored visually after about 3 weeks
Description: as §2

HORMU: Hordeum murinum [18] = experiment: Pre-emergence herbicidal action; settings: Table C1, pre-emergence, 80 g/ha, scored visually after about 3 weeks
Description: as §2

[19] = test system: ABUTH: Abutilon theophrasti; experiment: Pre-emergence herbicidal action; settings: Table C1, pre-emergence, 80 g/ha, scored visually after about 3 weeks
Description: as §2

[20] = test system: ALOMY: Alopecurus myosuroides; experiment: Pre-emergence herbicidal action
Description: as §2

[21] = test system: MATIN: Matricaria inodora; experiment: Pre-emergence herbicidal action; settings: Table C1, pre-emergence, 80 g/ha, scored visually after about 3 weeks
Description: as §2

[22] = Second Table C4, superiority with respect to WO 2012/130798, pre-emergence, 20 g/ha
[23] = Table C1, pre-emergence, 80 g/ha, scored visually after about 3 weeks

CCOC(=O)C1CCC(NC(=O)C2(C(F)(F)F)CC(c3cc(F)cc(F)c3)=NO2)C1 (mixture of isomers) [Example I-29]
Herbicidal action against [%] ECHCG [1]: 80%
Herbicidal action against [%] AMARE [2]: 80%
Herbicidal action against [%] STEME (STEME: Stellaria media [3]; Second Table C3, superiority with respect to WO 2012/130798, post-emergence, 80 g/ha): 80%
Herbicidal action against [%] STEME (STEME: Stellaria media [3]; Table C2, post-emergence, dosage 320 (0.32 kg of active substance per hectare), rated visually after about 3 weeks): 80%
Herbicidal action against [%] AVEFA (AVEFA: Avena fatua [4]): 90%
Herbicidal action against [%] LOLRI (LOLRI: Lolium rigidum [5]): 90%
Herbicidal action against [%] VERPE (VERPE: Veronica persica [6]): 80%
Herbicidal action against [%] POLCO [7]: 90%
Herbicidal action against [%] HORMU (HORMU: Hordeum murinum [8]): 90%
Herbicidal action against [%] ABUTH [9]: 80%
Herbicidal action against [%] ALOMY [10]: 90%
Herbicidal action against [%] ECHCG [11]: 90%
Herbicidal action against [%] AMARE [12, 22]: 100%
Herbicidal action against [%] AMARE [12, 23]: 100%
Herbicidal action against [%] SETVI (SETVI: Setaria viridis; [22]): 90%
Herbicidal action against [%] SETVI (SETVI: Setaria viridis; [23]): 100%
Herbicidal action against [%] VIOTR (VIOTR: Viola tricolor; [22]): 90%
Herbicidal action against [%] VIOTR (VIOTR: Viola tricolor; [23]): 90%
Herbicidal action against [%] STEME (STEME: Stellaria media [13]; [22]): 90%
Herbicidal action against [%] STEME (STEME: Stellaria media [13]; [23]): 90%
Herbicidal action against [%] AVEFA (AVEFA: Avena fatua [14]; [22]): 70%
Herbicidal action against [%] AVEFA (AVEFA: Avena fatua [14]; [23]): 80%
Herbicidal action against [%] LOLRI (LOLRI: Lolium rigidum [15]): 100%
Herbicidal action against [%] PHBPU (PHBPU: Ipomoea purpurea): 80%
Herbicidal action against [%] VERPE (VERPE: Veronica persica [16]; [22]): 90%
Herbicidal action against [%] VERPE (VERPE: Veronica persica [16]; [23]): 100%
Herbicidal action against [%] POLCO [17]: 80%
Herbicidal action against [%] HORMU (HORMU: Hordeum murinum [18]): 90%
Herbicidal action against [%] ABUTH [19]: 70%
Herbicidal action against [%] ALOMY [20, 22]: 90%
Herbicidal action against [%] ALOMY [20, 23]: 100%
Herbicidal action against [%] MATIN [21]: 30%
